Reference: article PMC11855478, “Bicyclic N,S-Acetals Containing Fused Cysteine-Amide System as New Heterocyclic Class Targeting Human Farnesyltransferase (FTase-h)” (International Journal of Molecular Sciences, 2025)

What was measured:
Format in all cases: cell-based, human
[1] = tested on: MOLT-4 (Leukemia); test: NCI one dose, MOLT-4; settings: MOLT-4, 1.00E-5 Molar one dose
In short: (§1)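 Here the NCI sixty-cell human cancer panel served as the test system; after two days (48 h) on compound, remaining cell mass was assessed by sulforhodamine B.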

[2] = tested on: RPMI-8226 (Leukemia); test: NCI one dose, RPMI-8226; settings: RPMI-8226, 1.00E-5 Molar one dose
In short: as §1

[3] = tested on: HOP-62 (Non-Small Cell Lung Cancer); test: NCI one dose, HOP-62; settings: HOP-62, 1.00E-5 Molar one dose
In short: as §1

[4] = tested on: NCI-H322M (Non-Small Cell Lung Cancer); test: NCI one dose, NCI-H322M; settings: 1.00E-5 Molar one dose
In short: as §1

[5] = tested on: NCI-H460 (Non-Small Cell Lung Cancer); test: NCI one dose, NCI-H460; settings: NCI-H460, 1.00E-5 Molar one dose
Description: (§2) 3.4. Cell Proliferation Assay
(§3) Selected compounds were tested on a panel of 60 human cancer cell lines at the National Cancer Institute (NCI), Germantown, MD, USA. The cytotoxicity studies were conducted using a 48 h exposure protocol using the sulfo-rhodamine B assay.

[6] = tested on: NCI-H522 non-small cell lung cancer cells; test: NCI cell proliferation, NCI-H522; settings: for inhibition at 10 µM: Homo sapiens, NCI-H522, read-out: % Cancer cell growth Inhibition (NCI-H522); for Growth Percent: NCI-H522, 1.00E-5 Molar one dose
In short: (§4)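 Sulforhodamine B protein staining measured cell growth after cells from the NCI 60-line panel were exposed to compound for 48 h.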

[7] = tested on: COLO 205 (Colon Cancer); test: NCI one dose, COLO 205; settings: COLO 205, 1.00E-5 Molar one dose
Description: as §2, §3

[8] = tested on: HCC-2998 (Colon Cancer); test: NCI one dose, HCC-2998; settings: HCC-2998, 1.00E-5 Molar one dose
In short: as §1

[9] = tested on: HCT-15 (Colon Cancer); test: NCI one dose, HCT-15; settings: HCT-15, 1.00E-5 Molar one dose
In short: as §1

[10] = tested on: HT29 (Colon Cancer); test: NCI one dose, HT29; settings: HT29, 1.00E-5 Molar one dose
In short: as §1

[11] = tested on: KM12 (Colon Cancer); test: NCI one dose, KM12; settings: KM12, 1.00E-5 Molar one dose
In short: as §1

[12] = tested on: SW-620 (Colon Cancer); test: NCI one dose, SW-620; settings: SW-620, 1.00E-5 Molar one dose
In short: as §1

[13] = tested on: SF-268 (CNS Cancer); test: NCI one dose, SF-268; settings: SF-268, 1.00E-5 Molar one dose
In short: as §1

[14] = tested on: SF-295 (CNS Cancer); test: NCI one dose, SF-295; settings: SF-295, 1.00E-5 Molar one dose
In short: as §4

[15] = tested on: SNB-19 (CNS Cancer); test: NCI one dose, SNB-19; settings: SNB-19, 1.00E-5 Molar one dose
In short: as §1

[16] = tested on: U251 (CNS Cancer); test: NCI one dose, U251; settings: U251, 1.00E-5 Molar one dose
In short: as §1

[17] = tested on: MALME-3M (Melanoma); test: NCI one dose, MALME-3M; settings: 1.00E-5 Molar one dose
In short: as §4

[18] = tested on: M14 (Melanoma); test: NCI one dose, M14; settings: M14, 1.00E-5 Molar one dose
In short: as §1

[19] = tested on: SK-MEL-2 (Melanoma); test: NCI one dose, SK-MEL-2; settings: SK-MEL-2, 1.00E-5 Molar one dose
In short: as §1

[20] = tested on: SK-MEL-28 (Melanoma); test: NCI one dose, SK-MEL-28; settings: SK-MEL-28, 1.00E-5 Molar one dose
In short: as §1

[21] = tested on: UACC-257 melanoma cells; test: NCI one dose, UACC-257; settings: UACC-257, 1.00E-5 Molar one dose
In short: as §1

[22] = tested on: UACC-62 (Melanoma); test: NCI one dose, UACC-62; settings: UACC-62, 1.00E-5 Molar one dose
In short: as §1

[23] = tested on: IGROV1 (Ovarian Cancer); test: NCI one dose, IGROV1; settings: IGROV1, 1.00E-5 Molar one dose
In short: as §1

[24] = tested on: OVCAR-5 (Ovarian Cancer); test: NCI one dose, OVCAR-5; settings: OVCAR-5, 1.00E-5 Molar one dose
In short: as §1

[25] = tested on: SK-OV-3 (Ovarian Cancer); test: NCI one dose, SK-OV-3; settings: SK-OV-3, 1.00E-5 Molar one dose
In short: as §1

[26] = tested on: 786-0 (Renal Cancer); test: NCI one dose, 786-0; settings: 786-0, 1.00E-5 Molar one dose
In short: as §1

[27] = tested on: A498 (Renal Cancer); test: NCI one dose, A498; settings: A498, 1.00E-5 Molar one dose
In short: as §1

[28] = tested on: ACHN (Renal Cancer); test: NCI one dose, ACHN; settings: 1.00E-5 Molar one dose
In short: as §4

[29] = tested on: CAKI-1 (Renal Cancer); test: NCI one dose, CAKI-1; settings: CAKI-1, 1.00E-5 Molar one dose
In short: as §1

[30] = tested on: TK-10 (Renal Cancer); test: NCI one dose, TK-10; settings: TK-10, 1.00E-5 Molar one dose
In short: as §1

[31] = tested on: PC-3 (Prostate Cancer); test: NCI one dose, PC-3; settings: PC-3, 1.00E-5 Molar one dose
In short: as §1

[32] = tested on: DU-145 (Prostate Cancer); test: NCI one dose, DU-145; settings: DU-145, 1.00E-5 Molar one dose
In short: as §1

[33] = tested on: MDA-MB-231/ATCC (Breast Cancer); test: NCI one dose, MDA-MB-231/ATCC; settings: 1.00E-5 Molar one dose
In short: as §1

[34] = tested on: HS 578T (Breast Cancer); test: NCI one dose, HS 578T; settings: 1.00E-5 Molar one dose
In short: as §1

[35] = tested on: BT-549 (Breast Cancer); test: NCI one dose, BT-549; settings: BT-549, 1.00E-5 Molar one dose
In short: as §1

[36] = tested on: T-47D (Breast Cancer); test: NCI one dose, T-47D; settings: 1.00E-5 Molar one dose
Description: as §2, §3

[37] = tested on: MDA-MB-468 breast cancer cells; test: NCI one dose, MDA-MB-468; settings: MDA-MB-468, 1.00E-5 Molar one dose
In short: as §1

Structure (SMILES) | Growth Percent [1] | Growth Percent [2] | Growth Percent [3] | Growth Percent [4] | Growth Percent [5] | inhibition at 10 µM [6] | Growth Percent [6] | Growth Percent [7] | Growth Percent [8] | Growth Percent [9] | Growth Percent [10] | Growth Percent [11] | Growth Percent [12] | Growth Percent [13] | Growth Percent [14] | Growth Percent [15] | Growth Percent [16] | Growth Percent [17] | Growth Percent [18] | Growth Percent [19] | further results
COc1cccc(CNC(=O)[C@@H]2CS[C@@]3(C)c4ccccc4C(=O)N23)c1 [4bE] | 85.50% | 95.74% | 98.17% | 102.58% | 104.83% | 33% | 67.45% | 115.50% | 107.01% | 102.87% | 89.19% | 107.56% | 104.85% | 106.18% | 97.61% | 102.99% | 100.00% | 110.68% | 104.58% | 97.24% | Growth Percent [20]: 112.92%; Growth Percent [21]: 81.73%; Growth Percent [22]: 91.91%; Growth Percent [23]: 107.98%; Growth Percent [24]: 110.33%; Growth Percent [25]: 101.46%; Growth Percent [26]: 105.14%; Growth Percent [27]: 85.49%; Growth Percent [28]: 106.16%; Growth Percent [29]: 85.65%; Growth Percent [30]: 95.45%; Growth Percent [31]: 96.89%; Growth Percent [32]: 106.55%; Growth Percent [33]: 105.57%; Growth Percent [34]: 95.18%; Growth Percent [35]: 110.64%; Growth Percent [36]: 96.67%; Growth Percent [37]: 93.38%
COc1ccc(CNC(=O)[C@@H]2CS[C@@]3(C)c4ccccc4C(=O)N23)cc1 [4bF] | 76.38% | 88.87% | 95.58% | 107.95% | 110.45% | 28% | 72.32% | 108.39% | 101.61% | 101.20% | 84.10% | 96.53% | 106.66% | 98.37% | 93.44% | 99.83% | 93.45% | 111.34% | 102.83% | 93.38% | Growth Percent [20]: 106.19%; Growth Percent [21]: 87.83%; Growth Percent [22]: 93.24%; Growth Percent [23]: 107.92%; Growth Percent [24]: 107.98%; Growth Percent [25]: 106.02%; Growth Percent [26]: 98.12%; Growth Percent [27]: 96.46%; Growth Percent [28]: 101.13%; Growth Percent [29]: 85.69%; Growth Percent [30]: 99.99%; Growth Percent [31]: 93.51%; Growth Percent [32]: 105.22%; Growth Percent [33]: 93.86%; Growth Percent [34]: 96.39%; Growth Percent [35]: 106.11%; Growth Percent [36]: 97.83%; Growth Percent [37]: 86.72%
COc1ccccc1CNC(=O)[C@@H]1CS[C@@]2(C)c3ccccc3C(=O)N12 [4bG] | 96.78% | 96.98% | 98.30% | 100.27% | 107.31% | 30% | 70.03% | 105.75% | 108.79% | 98.16% | 79.32% | 103.74% | 104.41% | 105.82% | 99.22% | 102.87% | 94.53% | 100.10% | 100.11% | 98.59% | Growth Percent [20]: 109.27%; Growth Percent [21]: 74.15%; Growth Percent [22]: 95.39%; Growth Percent [23]: 107.94%; Growth Percent [24]: 107.74%; Growth Percent [25]: 99.44%; Growth Percent [26]: 104.93%; Growth Percent [27]: 93.00%; Growth Percent [28]: 109.61%; Growth Percent [29]: 90.92%; Growth Percent [30]: 91.89%; Growth Percent [31]: 98.65%; Growth Percent [32]: 107.06%; Growth Percent [33]: 98.66%; Growth Percent [34]: 95.65%; Growth Percent [35]: 109.63%; Growth Percent [36]: 98.35%; Growth Percent [37]: 93.22%
C[C@@]12SC[C@@H](C(=O)NCc3ccc(Cl)cc3Cl)N1C(=O)c1ccccc12 [4bH] | 83.18% | 86.31% | 103.25% | 92.74% | 104.39% | 28% | 71.73% | 109.32% | 99.28% | 105.31% | 83.74% | 101.11% | 104.06% | 99.59% | 98.60% | 100.91% | 90.46% | 108.23% | 108.31% | 92.79% | Growth Percent [20]: 108.92%; Growth Percent [21]: 79.49%; Growth Percent [22]: 81.85%; Growth Percent [23]: 100.21%; Growth Percent [24]: 99.53%; Growth Percent [25]: 99.25%; Growth Percent [26]: 103.58%; Growth Percent [27]: 77.10%; Growth Percent [28]: 106.47%; Growth Percent [29]: 86.12%; Growth Percent [30]: 105.53%; Growth Percent [31]: 78.16%; Growth Percent [32]: 109.42%; Growth Percent [33]: 99.81%; Growth Percent [34]: 91.90%; Growth Percent [35]: 107.71%; Growth Percent [36]: 79.65%; Growth Percent [37]: 88.80%
